Test results reported in PubChem BioAssay (NCI).
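Dose response: 5 concentrations. Exposure: 48 h. Format: 96-well plates. Endpoint: linear interpolation; highest concentration if not reached. GI50: concentration for 50% inhibition of growth. TGI: total growth inhibition.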

Key:
Assay in all cases: NCI anticancer screen, dose series, 48 h
MDA-MB-231 breast = test system: MDA-MB-231 breast
SK-MEL-2 melanoma = test system: SK-MEL-2 melanoma
SK-MEL-28 melanoma = test system: SK-MEL-28 melanoma
SF-268 CNS = test system: SF-268 CNS
NCI-H23 lung = test system: NCI-H23 lung
M14 melanoma = test system: M14 melanoma
HT29 colon = test system: HT29 colon
HCT-15 colon = test system: HCT-15 colon
SF-295 CNS = test system: SF-295 CNS
BT-549 breast = test system: BT-549 breast
ACHN renal = test system: ACHN renal
KM12 colon = test system: KM12 colon
HOP-62 NSCLC = test system: HOP-62 NSCLC
786-0 renal = test system: 786-0 renal
SK-OV-3 ovarian = test system: SK-OV-3 ovarian
CCRF-CEM leukemia = test system: CCRF-CEM leukemia
HOP-92 NSCLC = test system: HOP-92 NSCLC
U251 CNS = test system: U251 CNS
OVCAR-5 ovarian = test system: OVCAR-5 ovarian
A549 NSCLC = test system: A549 NSCLC
SK-MEL-5 melanoma = test system: SK-MEL-5 melanoma
MDA-MB-435 = test system: MDA-MB-435
HCC-2998 colon = test system: HCC-2998 colon
UACC-62 melanoma = test system: UACC-62 melanoma
PC-3 prostate = test system: PC-3 prostate
OVCAR-4 ovarian = test system: OVCAR-4 ovarian
HS 578T breast = test system: HS 578T breast
IGROV1 ovarian = test system: IGROV1 ovarian
MOLT-4 leukemia = test system: MOLT-4 leukemia
SN12C renal = test system: SN12C renal
UO-31 renal = test system: UO-31 renal
SR leukemia = test system: SR leukemia
LOX IMVI melanoma = test system: LOX IMVI melanoma
MCF7 breast = test system: MCF7 breast
A498 renal = test system: A498 renal
NCI-H460 lung = test system: NCI-H460 lung
SNB-75 CNS = test system: SNB-75 CNS
SF-539 CNS = test system: SF-539 CNS
COLO 205 colon = test system: COLO 205 colon
SNB-19 CNS = test system: SNB-19 CNS
RXF 393 renal = test system: RXF 393 renal
HCT-116 colon = test system: HCT-116 colon
DU-145 prostate = test system: DU-145 prostate
UACC-257 melanoma = test system: UACC-257 melanoma
MALME-3M melanoma = test system: MALME-3M melanoma
HL-60(TB) leukemia = test system: HL-60(TB) leukemia
SW-620 colon = test system: SW-620 colon
CAKI-1 renal = test system: CAKI-1 renal
K-562 leukemia = test system: K-562 leukemia
NCI-H522 lung = test system: NCI-H522 lung
EKVX NSCLC = test system: EKVX NSCLC
RPMI-8226 leukemia = test system: RPMI-8226 leukemia
OVCAR-8 ovarian = test system: OVCAR-8 ovarian
TK-10 renal = test system: TK-10 renal
T-47D breast = test system: T-47D breast
NCI/ADR-RES ovarian = test system: NCI/ADR-RES ovarian
NCI-H226 lung = test system: NCI-H226 lung

## COc1cc2c(cc1OC)C(Sc1ccc(F)cc1)c1c(nc(N)c(C#N)c1N)O2 (centres undefined)
MDA-MB-231 breast
  GI50: 1360 nM
  TGI: 2700 nM
SK-MEL-2 melanoma
  GI50: 859 nM
  TGI: 2140 nM
SK-MEL-28 melanoma
  GI50: 982 nM
  TGI: 2340 nM
SF-268 CNS
  GI50: 1390 nM
  TGI: 2900 nM
NCI-H23 lung
  GI50: 1270 nM
  TGI: 2850 nM
M14 melanoma
  GI50: 1160 nM
  TGI: 2490 nM
HT29 colon
  GI50: 1600 nM
  TGI: 3210 nM
HCT-15 colon
  GI50: 399 nM
  TGI: 1660 nM
SF-295 CNS
  GI50: 1620 nM
  TGI: 3000 nM
BT-549 breast
  GI50: 760 nM
  TGI: 2170 nM
ACHN renal
  GI50: 1610 nM
  TGI: 2980 nM
KM12 colon
  GI50: 1480 nM
  TGI: 2900 nM
HOP-62 NSCLC
  GI50: 1710 nM
  TGI: 3190 nM
786-0 renal
  GI50: 1090 nM
  TGI: 2320 nM
SK-OV-3 ovarian
  GI50: 1740 nM
  TGI: 3170 nM
CCRF-CEM leukemia
  GI50: 164 nM
  TGI: > 100000 nM
HOP-92 NSCLC
  GI50: 1190 nM
  TGI: 2640 nM
U251 CNS
  GI50: 738 nM
  TGI: 2080 nM
OVCAR-5 ovarian
  GI50: 1650 nM
  TGI: 3110 nM
A549 NSCLC
  GI50: 1530 nM
  TGI: 3000 nM
SK-MEL-5 melanoma
  GI50: 1570 nM
  TGI: 2950 nM
MDA-MB-435
  GI50: 1220 nM
  TGI: 2540 nM
HCC-2998 colon
  GI50: 1510 nM
  TGI: 2970 nM
UACC-62 melanoma
  GI50: 1200 nM
  TGI: 2500 nM
PC-3 prostate
  GI50: 1050 nM
  TGI: 2470 nM
OVCAR-4 ovarian
  GI50: 1540 nM
  TGI: 2930 nM
HS 578T breast
  GI50: 1680 nM
  TGI: 4920 nM
IGROV1 ovarian
  GI50: 534 nM
  TGI: 1950 nM
MOLT-4 leukemia
  GI50: 382 nM
  TGI: > 100000 nM
SN12C renal
  GI50: 1130 nM
  TGI: 2360 nM
UO-31 renal
  GI50: 511 nM
  TGI: 1930 nM
SR leukemia
  GI50: 281 nM
  TGI: > 100000 nM
LOX IMVI melanoma
  GI50: 325 nM
  TGI: 1090 nM
MCF7 breast
  GI50: 477 nM
  TGI: 2040 nM
A498 renal
  GI50: 1290 nM
  TGI: 2570 nM
NCI-H460 lung
  GI50: 1270 nM
  TGI: 2960 nM
SNB-75 CNS
  GI50: 1330 nM
  TGI: 2700 nM
SF-539 CNS
  GI50: 1190 nM
  TGI: 2490 nM
COLO 205 colon
  GI50: 1100 nM
  TGI: 2470 nM
SNB-19 CNS
  GI50: 1250 nM
  TGI: 2540 nM
RXF 393 renal
  GI50: 751 nM
  TGI: 2030 nM
HCT-116 colon
  GI50: 780 nM
  TGI: 2140 nM
DU-145 prostate
  GI50: 1580 nM
  TGI: 2920 nM
UACC-257 melanoma
  GI50: 1340 nM
  TGI: 2670 nM
MALME-3M melanoma
  GI50: 1200 nM
  TGI: 2540 nM
HL-60(TB) leukemia
  GI50: 319 nM
  TGI: 1280 nM
SW-620 colon
  GI50: 709 nM
  TGI: 2040 nM
CAKI-1 renal
  GI50: 1040 nM
  TGI: 2220 nM
K-562 leukemia
  GI50: 426 nM
  TGI: > 100000 nM
NCI-H522 lung
  GI50: 1250 nM
  TGI: 2530 nM
EKVX NSCLC
  GI50: 1460 nM
  TGI: 2840 nM
RPMI-8226 leukemia
  GI50: 754 nM
OVCAR-8 ovarian
  GI50: 1260 nM
  TGI: 2540 nM
TK-10 renal
  GI50: 1470 nM
  TGI: 2800 nM

## CCn1c2ccccc2c2cc(-n3nncc3-c3ccccc3)ccc21
T-47D breast
  TGI: > 100000 nM
MDA-MB-231 breast
  GI50: 540 nM
  TGI: > 100000 nM
SK-MEL-2 melanoma
  GI50: 104 nM
  TGI: > 31200 nM
SK-MEL-28 melanoma
  GI50: > 64400 nM
  TGI: > 100000 nM
SF-268 CNS
  GI50: 843 nM
  TGI: > 100000 nM
NCI-H23 lung
  GI50: 375 nM
  TGI: > 100000 nM
M14 melanoma
  GI50: 82.9 nM
  TGI: > 100000 nM
HT29 colon
  GI50: 117 nM
  TGI: 927 nM
HCT-15 colon
  GI50: 67 nM
  TGI: > 100000 nM
SF-295 CNS
  GI50: 45.9 nM
  TGI: > 100000 nM
BT-549 breast
  GI50: 147 nM
  TGI: 2030 nM
ACHN renal
  GI50: 301 nM
  TGI: > 100000 nM
KM12 colon
  GI50: 49 nM
HOP-62 NSCLC
  GI50: 141 nM
  TGI: > 100000 nM
786-0 renal
  GI50: 340 nM
  TGI: > 100000 nM
SK-OV-3 ovarian
  GI50: 383 nM
  TGI: > 100000 nM
CCRF-CEM leukemia
  GI50: 203 nM
  TGI: > 100000 nM
HOP-92 NSCLC
  TGI: > 77600 nM
U251 CNS
  GI50: 116 nM
  TGI: > 100000 nM
OVCAR-5 ovarian
  GI50: 410 nM
  TGI: > 100000 nM
A549 NSCLC
  GI50: 208 nM
  TGI: > 100000 nM
SK-MEL-5 melanoma
  GI50: 435 nM
  TGI: 4020 nM
HCC-2998 colon
  GI50: 277 nM
  TGI: > 52400 nM
UACC-62 melanoma
  GI50: 61.8 nM
  TGI: > 100000 nM
PC-3 prostate
  GI50: 139 nM
  TGI: > 100000 nM
OVCAR-4 ovarian
  GI50: 29700 nM
  TGI: > 100000 nM
HS 578T breast
  GI50: 61.5 nM
  TGI: > 100000 nM
IGROV1 ovarian
  GI50: 164 nM
  TGI: > 100000 nM
MOLT-4 leukemia
  GI50: 350 nM
  TGI: > 100000 nM
SN12C renal
  GI50: 800 nM
  TGI: > 100000 nM
UO-31 renal
  GI50: 649 nM
  TGI: > 100000 nM
SR leukemia
  GI50: 37.5 nM
  TGI: > 100000 nM
LOX IMVI melanoma
  GI50: 129 nM
  TGI: > 100000 nM
MCF7 breast
  GI50: 269 nM
  TGI: > 100000 nM
A498 renal
  GI50: 95.4 nM
  TGI: 799 nM
NCI-H460 lung
  GI50: 81 nM
  TGI: > 62600 nM
SNB-75 CNS
  GI50: 26.6 nM
  TGI: 262 nM
SF-539 CNS
  GI50: 123 nM
  TGI: 754 nM
COLO 205 colon
  GI50: 134 nM
  TGI: 438 nM
SNB-19 CNS
  GI50: 285 nM
  TGI: > 100000 nM
RXF 393 renal
  GI50: 130 nM
  TGI: > 100000 nM
HCT-116 colon
  GI50: 72.2 nM
DU-145 prostate
  GI50: 375 nM
UACC-257 melanoma
  GI50: 22200 nM
  TGI: > 100000 nM
MALME-3M melanoma
  GI50: 2430 nM
  TGI: > 100000 nM
HL-60(TB) leukemia
  GI50: 69.7 nM
  TGI: > 20300 nM
SW-620 colon
  GI50: 73.2 nM
  TGI: > 100000 nM
CAKI-1 renal
  GI50: 77.5 nM
  TGI: > 100000 nM
K-562 leukemia
  GI50: 40.7 nM
  TGI: > 100000 nM
NCI/ADR-RES ovarian
  GI50: 53.4 nM
  TGI: > 100000 nM
NCI-H522 lung
  GI50: 30.2 nM
  TGI: 145 nM
EKVX NSCLC
  GI50: 532 nM
  TGI: > 100000 nM
NCI-H226 lung
  GI50: 519 nM
  TGI: > 100000 nM
RPMI-8226 leukemia
  GI50: 289 nM
  TGI: > 71200 nM
OVCAR-8 ovarian
  GI50: 300 nM
  TGI: > 100000 nM
TK-10 renal
  GI50: > 73800 nM
  TGI: > 100000 nM
